Here are results for 29 molecules from patent US20240199605A1, “SMALL MOLECULAR INHIBITORS OF NF-kB INDUCING KINASE” (Janssen Pharmaceutica NV, priority 2019, published 2024).

The target in test [1] is recombinant human NF-kappaB-inducing kinase (NIK/MAP3K14) (Homo sapiens (Human), UniProt Q99558). The experiment in a line: Inhibition of auto-phosphorylation of recombinant human NIK/MAP3K14 (AlphaScreen). Format: biochemical. The note with it: NIK auto-phosphorylation, 5 μM ATP, 1 nM NIK, 2 h at 25° C.; average of values. Put shortly: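 GST-tagged NIK (1 nM) auto-phosphorylated with 5 μM ATP for 2 h at 25° C. in 50 mM Tris pH 7.5, 5 mM MgCl2, 1 mM EGTA, 1 mM DTT, 0.1 mM Na3VO4, 0.01% Tween 20 (0.7% DMSO). Detected by AlphaScreen via anti-phospho-IKK Ser176/180 antibody; IC50 from sigmoidal fit of % inhibition versus log concentration.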

Test [2] deals with p-IKKα levels in L363 (NIK translocated multiple myeloma) cells. The experiment in a line: Effect of compounds on p-IKKα levels in L363 cells (AlphaLISA SureFire Ultra). The format is cell-based, human. The note with it: Homo sapiens, L-363, 6 h, BAFF stimulated, MG132, 6 h, average of values, read-out: Assay 2 IC50. In short, it runs like this: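 Inhibition of p-IKKα (Ser176/180) read by AlphaLISA after 6 h, 37 °C compound exposure (11-point 1:3 series, 0.3% DMSO) of L363 cells pre-incubated overnight ± 250 ng/ml BAFF and plated ± BAFF ± 10 μM MG132. Normalised to BAFF/MG132/DMSO and unstimulated controls; IC50 by sigmoidal fitting, duplicates.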

Sequence of recombinant human NF-kappaB-inducing kinase (NIK/MAP3K14) (Q99558 whole entry): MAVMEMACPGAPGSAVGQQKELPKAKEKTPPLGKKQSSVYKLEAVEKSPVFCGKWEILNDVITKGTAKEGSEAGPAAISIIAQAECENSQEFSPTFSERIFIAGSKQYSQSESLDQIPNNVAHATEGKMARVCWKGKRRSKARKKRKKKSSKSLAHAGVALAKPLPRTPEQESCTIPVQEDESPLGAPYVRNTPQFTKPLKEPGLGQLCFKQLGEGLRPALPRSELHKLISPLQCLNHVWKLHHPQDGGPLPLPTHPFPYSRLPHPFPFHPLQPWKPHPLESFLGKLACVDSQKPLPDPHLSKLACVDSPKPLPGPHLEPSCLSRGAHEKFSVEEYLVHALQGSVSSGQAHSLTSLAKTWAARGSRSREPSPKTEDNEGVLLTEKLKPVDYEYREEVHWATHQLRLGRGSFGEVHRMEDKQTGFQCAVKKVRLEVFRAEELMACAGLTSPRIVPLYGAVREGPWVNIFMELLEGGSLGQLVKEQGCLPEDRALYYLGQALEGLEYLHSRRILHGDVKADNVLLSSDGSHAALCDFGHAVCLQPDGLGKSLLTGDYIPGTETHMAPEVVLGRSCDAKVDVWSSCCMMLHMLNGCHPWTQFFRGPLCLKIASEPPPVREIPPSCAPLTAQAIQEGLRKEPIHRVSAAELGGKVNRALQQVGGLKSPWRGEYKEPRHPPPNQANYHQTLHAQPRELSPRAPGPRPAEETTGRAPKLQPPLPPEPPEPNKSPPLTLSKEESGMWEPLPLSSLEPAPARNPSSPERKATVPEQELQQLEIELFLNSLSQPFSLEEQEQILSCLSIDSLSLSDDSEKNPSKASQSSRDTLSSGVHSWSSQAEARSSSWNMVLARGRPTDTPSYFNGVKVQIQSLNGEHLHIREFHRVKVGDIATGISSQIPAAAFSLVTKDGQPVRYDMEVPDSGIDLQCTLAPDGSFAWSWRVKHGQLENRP

Turning to `Cc1cc([C@](C)(O)C#Cc2ccc(C)c(-c3ccc4ccnc(N)c4c3)c2)no1` [Example 79, (R)-4-[3-(1-Amino-7-isoquinolyl)-4-methyl-phenyl]-2-(5-methylisoxazol-3-yl)but-3-yn-2-ol], the IC50 is 590 nM in test [1] and more than 5000 nM in test [2].

On to `Cc1ccc(C#C[C@]2(O)CCc3cccnc32)cc1-c1ccc2ccnc(N)c2c1` [Example 80, (R)-7-[2-[3-(1-Amino-7-isoquinolyl)-4-methyl-phenyl]ethynyl]-5,6-dihydrocyclopenta[b]pyridin-7-ol], for which the values for the IC50 in test [1] and in test [2] were 28 nM and 4000 nM, respectively.

Turning to `Cc1ccc(C#C[C@]2(O)CCn3ccnc32)cc1-c1ccc2ccnc(N)c2c1` [Example 81, (R)-7-[2-[3-(1-Amino-7-isoquinolyl)-4-methyl-phenyl]ethynyl]-5,6-dihydropyrrolo[1,2-a]imidazol-7-ol], the results for the IC50 in test [1] and in test [2] were 11 nM and 1980 nM, respectively.

Consider `Cc1cc([C@](C)(O)C#Cc2ccc(C)c(-c3ncc4ccnc(N)c4n3)c2)no1` [Example 82, (R)-4-(3-(8-Aminopyrido[3,4-d]pyrimidin-2-yl)-4-methylphenyl)-2-(5-methylisoxazol-3-yl)but-3-yn-2-ol], for which the figures for the IC50 in test [1] and in test [2] were 31 nM and 2000 nM, respectively.

Turning to `[2H]C([2H])([2H])N1CC[C@@](O)(C#Cc2cccc(-c3nc(C)c4ccnc(N)c4n3)c2)C1=O` [Example 83, (R)-3-((3-(8-Amino-4-methylpyrido[3,4-d]pyrimidin-2-yl)phenyl)ethynyl)-3-hydroxy-1-(methyl-da)pyrrolidin-2-one], the IC50 is not above 0.5 nM in test [1] and 3.2 nM in test [2].

As for `Cc1nc(-c2cccc(C#C[C@]3(O)CCn4ccnc43)c2)nc2c(N)nccc12` [Example 84, (R)-7-((3-(8-Amino-4-methylpyrido[3,4-d]pyrimidin-2-yl)phenyl)ethynyl)-6,7-dihydro-5H-pyrrolo[1,2-a]imidazol-7-ol], the IC50 is not above 0.5 nM in test [1] and 5.5 nM in test [2].

As to `CNc1nc(-c2cccc(C#C[C@]3(O)CCN(C)C3=O)c2)nc2c(N)nccc12` [Example 85, (R)-3-((3-(8-Amino-4-(methylamino)pyrido[3,4-d]pyrimidin-2-yl)phenyl)ethynyl)-3-hydroxy-1-methylpyrrolidin-2-one], the results for the IC50 in test [1] and in test [2] were 0.7 nM and 6.1 nM, respectively.

`Cc1cnc(N)c2nc(-c3cccc(C#C[C@]4(O)CCn5ccnc54)c3)ncc12` [Example 86, (R)-7-[2-[3-(8-Amino-5-methyl-pyrido[3,4-d]pyrimidin-2-yl)phenyl]ethynyl]-5,6-dihydropyrrolo[1,2-a]imidazol-7-ol]: the IC50 was not above 0.5 nM in test [1] and 7.7 nM in test [2].

With `Cc1nnc([C@](C)(O)C#Cc2cccc(-c3ccc4ccnc(N)c4n3)c2)o1` [Example 88, (R)-4-[3-(8-Amino-1,7-naphthyridin-2-yl)phenyl]-2-(5-methyl-1,3,4-oxadiazol-2-yl)but-3-yn-2-ol], the IC50 in test [1] was found to be 4.7 nM; in test [2], 400 nM.

For `Cc1cc([C@](C)(O)C#Cc2cccc(-c3ccc4ccnc(N)c4n3)c2)no1` [Example 89, (R)-4-[3-(8-Amino-1,7-naphthyridin-2-yl)phenyl]-2-(5-methylisoxazol-3-yl)but-3-yn-2-ol], the IC50 in test [1] is 2.3 nM; in test [2] it was 590 nM.

With `C[C@@](O)(C#Cc1cccc(-c2ccc3ccnc(N)c3n2)c1)c1nccs1` [Example 90, (R)-4-[3-(8-Amino-1,7-naphthyridin-2-yl)phenyl]-2-thiazol-2-yl-but-3-yn-2-ol], the IC50 was not above 0.5 nM in test [1] and 70 nM in test [2].

Take `Cc1nc(-c2cccc(C#C[C@]3(O)CCN(CC(F)(F)F)C3=O)c2)nc2c(N)nccc12` [Example 92, (R)-3-[2-[3-(8-Amino-4-methyl-pyrido[3,4-d]pyrimidin-2-yl)phenyl]ethynyl]-3-hydroxy-1-(2,2,2-trifluoroethyl)pyrrolidin-2-one]: the results for the IC50 in test [1] and in test [2] were 6.6 nM and 480 nM, respectively.

On to `C[C@@](O)(C#Cc1cccc(-c2ccc3ncnc(N)c3n2)c1)c1nccs1` [Example 93, (R)-4-(3-(4-Aminopyrido[3,2-d]pyrimidin-6-yl)phenyl)-2-(thiazol-2-yl)but-3-yn-2-ol], for which the IC50 in test [1] is not above 0.5 nM; in test [2], 6.5 nM.

`CN1CC[C@@](O)(C#Cc2cccc(-c3ncc4c(Br)cnc(N)c4n3)c2)C1=O` [Example 94, (R)-3-((3-(8-Amino-5-bromopyrido[3,4-d]pyrimidin-2-yl)phenyl)ethynyl)-3-hydroxy-1-methylpyrrolidin-2-one]: the IC50 in test [1] was not above 0.5 nM; in test [2], 4.2 nM.

`Cc1cc([C@](C)(O)C#Cc2cccc(-c3ccc4ncnc(N)c4n3)c2)no1` [Example 95, (R)-4-(3-(4-Aminopyrido[3,2-d]pyrimidin-6-yl)phenyl)-2-(5-methylisoxazol-3-yl)but-3-yn-2-ol]: the figures for the half-maximal inhibitory concentration (IC50) in test [1] and in test [2] were 0.8 nM and 28 nM, respectively.

With `CN1CC[C@@](O)(C#Cc2cccc(-c3ccc4cnnc(N)c4c3)c2)C1=O` [Example 96, (R)-3-[2-[3-(4-Aminophthalazin-6-yl)phenyl]ethynyl]-3-hydroxy-1-methyl-pyrrolidin-2-one], the results for the IC50 in test [1] and in test [2] were 29 nM and more than 5000 nM, respectively.

For `Cc1nnc([C@](C)(O)C#Cc2cccc(-c3ccc4ncnc(N)c4n3)c2)o1` [Example 97, (R)-4-(3-(4-Aminopyrido[3,2-d]pyrimidin-6-yl)phenyl)-2-(5-methyl-1,3,4-oxadiazol-2-yl)but-3-yn-2-ol], the IC50 in test [1] came to 0.8 nM; in test [2] it was 46 nM.

Consider `CC(C)c1nc(-c2cccc(C#C[C@]3(O)CCN(C)C3=O)c2)nc2c(N)nccc12` [Example 98, (R)-3-((3-(8-Amino-4-isopropylpyrido[3,4-d]pyrimidin-2-yl)phenyl)ethynyl)-3-hydroxy-1-methylpyrrolidin-2-one], for which the IC50 in test [1] is 1.5 nM; in test [2] it was 38 nM.

As for `CN1CC[C@@](O)(C#Cc2cccc(-c3ncc4c(C(F)(F)F)cnc(N)c4n3)c2)C1=O` [Example 99, (R)-3-[2-[3-[8-Amino-5-(trifluoromethyl)pyrido[3,4-d]pyrimidin-2-yl]phenyl]ethynyl]-3-hydroxy-1-methyl-pyrrolidin-2-one], the values for the concentration for half-maximal inhibition (IC50) in test [1] and in test [2] were not above 0.5 nM and 12 nM, respectively.

As for `CN1CC[C@@](O)(C#Cc2cccc(-c3ncc4c(C#N)cnc(N)c4n3)c2)C1=O` [Example 100, (R)-8-Amino-2-(3-((3-hydroxy-1-methyl-2-oxopyrrolidin-3-yl)ethynyl)phenyl)pyrido[3,4-d]pyrimidine-5-carbonitrile], the IC50 in test [1] is not above 0.5 nM; in test [2] it was 6.1 nM.

On to `CN1CC[C@@](O)(C#Cc2cccc(-c3nc4c(N)ncnc4s3)c2)C1=O` [Example 101, (R)-3-((3-(7-Aminothiazolo[5,4-d]pyrimidin-2-yl)phenyl)ethynyl)-3-hydroxy-1-methylpyrrolidin-2-one], for which the IC50 came to 1.2 nM in test [1] and 26 nM in test [2].

As for `CN1CC[C@@](O)(C#Cc2cccc(-c3ncc4c(I)cnc(N)c4n3)c2)C1=O` [Example 102, (R)-3-((3-(8-Amino-5-iodopyrido[3,4-d]pyrimidin-2-yl)phenyl)ethynyl)-3-hydroxy-1-methylpyrrolidin-2-one], the IC50 in test [1] was not above 0.5 nM; in test [2], 11 nM.

For the molecule `CN1CC[C@@](O)(C#Cc2cccc(-c3ncc4c(Cl)cnc(N)c4n3)c2)C1=O` [Example 103, (R)-3-((3-(8-Amino-5-chloropyrido[3,4-d]pyrimidin-2-yl)phenyl)ethynyl)-3-hydroxy-1-methylpyrrolidin-2-one], the half-inhibitory concentration (IC50) in test [1] was not above 0.5 nM; in test [2], 5.8 nM.

For `Cc1cc([C@](C)(O)C#Cc2cccc(-c3ccc4ncnc(N)c4c3)c2)no1` [Example 104, (R)-4-[3-(4-Aminoquinazolin-6-yl)phenyl]-2-(5-methylisoxazol-3-yl)but-3-yn-2-ol], the IC50 in test [1] came out at 1.3 nM; in test [2], 280 nM.

Consider `C[C@@](O)(C#Cc1cccc(-c2ccc3ncnc(N)c3c2)c1)c1nccs1` [Example 105, (R)-4-[3-(4-Aminoquinazolin-6-yl)phenyl]-2-thiazol-2-yl-but-3-yn-2-ol], for which the figures for the IC50 in test [1] and in test [2] were 0.6 nM and 64 nM, respectively.

For the molecule `Cc1nnc([C@](C)(O)C#Cc2cccc(-c3ccc4ncnc(N)c4c3)c2)o1` [Example 106, (R)-4-[3-(4-Aminoquinazolin-6-yl)phenyl]-2-(5-methyl-1,3,4-oxadiazol-2-yl)but-3-yn-2-ol], the IC50 in test [1] amounted to 14 nM; in test [2], 1450 nM.

On to `Cc1nc(-c2cccc(C#Cc3ccn[nH]3)c2)nc2c(N)nccc12` [Example 107, 2-(3-((1H-Pyrazol-5-yl)ethynyl)phenyl)-4-methylpyrido[3,4-d]pyrimidin-8-amine], for which the IC50 is 52 nM in test [1] and more than 5000 nM in test [2].

As to `C[C@@](O)(C#Cc1cccc(-c2cnc3ncnc(N)c3c2)c1)c1nccs1` [Example 108, (R)-4-(3-(4-Aminopyrido[2,3-d]pyrimidin-6-yl)phenyl)-2-(thiazol-2-yl)but-3-yn-2-ol], the values for the IC50 in test [1] and in test [2] were 7.6 nM and more than 5000 nM, respectively.

Consider `CN1CC[C@@](O)(C#Cc2cccc(-c3cnc4ncnc(N)c4c3)c2)C1=O` [Example 109, (R)-3-((3-(4-Aminopyrido[2,3-d]pyrimidin-6-yl)phenyl)ethynyl)-3-hydroxy-1-methylpyrrolidin-2-one], for which the concentration for half-maximal inhibition (IC50) was 13 nM in test [1] and more than 5000 nM in test [2].
